Source: PubChem BioAssay (NCI)
“And” between values parts separate entries of the source, which are not always exact repeats. Equal values may be shown once.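 Five compound concentrations were applied to cells in 96-well plates for 48 hours; endpoints were derived by simple linear interpolation of the resulting dose-response curve. GI50 is the concentration that inhibits growth by half. At the TGI there is no net growth.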

Assays:
Assay in all cases: growth of human tumour cells (NCI), 48 h
UO-31 renal = test system: UO-31 renal
NCI-H23 lung = test system: NCI-H23 lung
U251 CNS = test system: U251 CNS
SNB-75 CNS = test system: SNB-75 CNS
DU-145 prostate = test system: DU-145 prostate
SNB-19 CNS = test system: SNB-19 CNS
HCT-116 colon = test system: HCT-116 colon
OVCAR-3 ovarian = test system: OVCAR-3 ovarian
ACHN renal = test system: ACHN renal
SK-OV-3 ovarian = test system: SK-OV-3 ovarian

SMILES	GI50 (UO-31 renal)	TGI (UO-31 renal)	GI50 (NCI-H23 lung)	TGI (NCI-H23 lung)	GI50 (U251 CNS)	TGI (U251 CNS)	GI50 (SNB-75 CNS)	TGI (SNB-75 CNS)	GI50 (DU-145 prostate)	TGI (DU-145 prostate)	GI50 (SNB-19 CNS)	TGI (SNB-19 CNS)	GI50 (HCT-116 colon)	TGI (HCT-116 colon)	GI50 (OVCAR-3 ovarian)	TGI (OVCAR-3 ovarian)	GI50 (ACHN renal)	TGI (ACHN renal)	GI50 (SK-OV-3 ovarian)	TGI (SK-OV-3 ovarian)
O=C(Nc1cc(C(F)(F)F)cc(C(F)(F)F)c1)c1cc(Cl)ccc1O	246 nM and 224 nM	856 nM and 811 nM	218 nM and 263 nM	754 nM and 1340 nM	234 nM and 228 nM	> 9500 nM and 7900 nM	159 nM and 172 nM	586 nM	345 nM and 347 nM	> 5230 nM and 10800 nM	291 nM and 233 nM	> 10000 nM and 12000 nM	213 nM and 238 nM	999 nM and 1160 nM	239 nM and 230 nM	> 3540 nM and 9930 nM	294 nM and 260 nM	1190 nM and 978 nM	185 nM and 181 nM	642 nM and 947 nM
CCC[CH2][Sn]([CH2]CCC)([O]C(=O)c1ccc(OC)c(OC)c1OC)[O][Sn]([CH2]CCC)([CH2]CCC)[O]C(=O)c1ccc(OC)c(OC)c1OC	546 nM	1180 nM	142 nM	535 nM	274 nM	1100 nM	177 nM	744 nM	1010 nM	2170 nM	285 nM	635 nM	276 nM	833 nM	406 nM	1180 nM	259 nM	583 nM	1240 nM	2590 nM
N=c1c2c(-c3ccccc3)c(-c3ccccc3)n(Cc3ccccc3)c2ncn1C1CCC(O)CC1 (stereo not given)	258 nM	1650 nM	836 nM	22000 nM	150 nM	5300 nM	920 nM	8850 nM	351 nM	15300 nM	1210 nM	17900 nM	44.6 nM	1750 nM	488 nM	5630 nM	65.3 nM	12800 nM	2320 nM	15700 nM
